{"source": "patent US20220211860A1", "about": "“PEPTIDE DERIVATIVES AND CONJUGATES THEREOF FOR TREATING CANCER” (priority 2019, published 2022)", "test_system": "MDA-MB-231", "test": "Receptor binding competitive assay (triptorelin pre-treatment, MTT)", "type": "cell-based, human", "details": "MDA-MB-231 pre-treated with 100 µM of triptorelin (TRN) for 2 h", "protocol": "FIGS. 5A and 5B: Receptor binding competitive assay. MDA-MB-231 was pre-treated with triptorelin (TRN) and LM (LD5-mc-vc-PABC-MMAE) then the MTT assay was performed. (A) The IC50 value (nM) was calculated by non-linear regression (curve fit) for PC-3 and MDA-MB-231 with and without pre-treatment with triptorelin. (B) The cell viability in TRN-LM was assessed in comparison to LM in MDA-MB-231 (TNBC cell line). The cytotoxic effects of LM is reversed after pre-treatment with triptorelin indicating a significant role of LHRH-Rs in the mechanism of action of LM. Two-way ANOVA was performed followed by Sidak's multiple comparisons test (***p<0.00001). Error bars are standard deviations (STDV), n=8 (3 independent repeats).\nReceptor binding competitive assay was performed to examine the association of cytotoxicity with binding to LHRH-Rs. TNBC cells (MDA-MB-231) were pre-treated with 100 µM of triptorelin (TRN) for 2 h to block the LHRH-R. The significant cytotoxic effects of LD5-mc-vc-PABC-MMAE (LM) was reversed after pre-treatment with TRN (FIGS. 5A and 5B)."}
{"smiles": "CCNC(=O)[C@@H]1CCCN1C(=O)[C@H](CCCNC(=N)N)NC(=O)[C@H](CC(C)C)NC(=O)[C@@H](CCCCNC1CC(=O)N(CCCCCC(=O)N[C@H](C(=O)N[C@@H](CCCNC(N)=O)C(=O)Nc2ccc(COC(=O)N(C)[C@H](C(=O)N[C@H](C(=O)N(C)[C@@H]([C@@H](C)CC)[C@@H](CC(=O)N3CCC[C@H]3[C@H](OC)[C@@H](C)C(=O)N[C@H](C)[C@@H](O)c3ccccc3)OC)C(C)C)C(C)C)cc2)C(C)C)C1=O)NC(=O)[C@H](Cc1ccc(O)cc1)NC(=O)[C@H](CO)NC(=O)[C@H](Cc1c[nH]c2ccccc12)NC(=O)[C@H](Cc1c[nH]cn1)NC(=O)[C@@H]1CCC(=O)N1", "note": "(stereo partly shown) [LD5-mc-vc-PABC-MMAE]", "values": [{"measurement": "cytotoxic effects after pre-treatment with triptorelin", "result": "reversed"}]}
